The subject of one assay is A-10 cells. Put plainly: Cellular microtubule depolymerization in A-10 cells (immunofluorescence). It is filed as cell-based. The conditions noted are these: for Microtubule depolymerization activity in A-10 cells: at a 10 µM concentration; for EC50: Rattus norvegicus, A10, 18 h, loss of 50% of interphase microtubules. How it is done: (§1) We investigated the microtubule depolymerization and the antiproliferative activities of compounds 4–14 (Table 2). […] We next evaluated the importance of the 4′-OMe group of compound 4 by replacing it with an isosteric 4′-SMe (5). […] Clearly, this further substantiated the importance of an S in the scaffold over an NH.
The effects of the compounds on cellular microtubules were evaluated in A-10 cells using indirect immunofluorescence microscopy. These cells were obtained from the American Type Culture Collection (ATCC) (Manassas, VA, USA). Cells were treated with the compounds of interest for 18 h, and the cells fixed with cold MeOH and microtubule structures were visualized using a β-tubulin antibody (Sigma-Aldrich, St. Louis, MO, USA). The concentration that caused loss of 50% of the interphase microtubules was defined as the EC50 and calculated as previously described. These values represent an average of at least three independent experiments.

Another assay concerns HeLa cells. The assay is described as follows: SRB assay in HeLa cells. It is filed as cell-based. The conditions noted are these: Homo sapiens, read-out: IC50 ± SD in HeLa. How it is done:
(§2) Compounds 4–8, 10, 12, and 13 were evaluated for their abilities to overcome βIII-tubulin mediated drug resistance using an isogenic HeLa cell line pair (Table 4). […] The Rr values (Table 4) were calculated by dividing the IC50 of the βIII-tubulin expressing line by the IC50 obtained in the parental HeLa cells.
(§3) The antiproliferative and cytotoxic effects of the compounds in cancer cells were evaluated using the SRB assay as previously described. MDA-MB-435 cells were obtained from the Lombardi Cancer Center of Georgetown University (Washington, DC, USA). SK-OV-3 and HeLa cells were purchased from ATCC. Details about the generation of the SK-OV-3 MDR1-M6/6 and HeLa WTβIII cells were described previously. The IC50 values represent an average of three independent experiments, each conducted using triplicate points.
(§4) HeLa, A-10, SK-OV-3, and SK-OV-3 MDR1-M6/6 cells were grown in Basal Medium Eagle (Sigma-Aldrich, St. Louis, MO, USA) supplemented with 10% FBS (Hyclone, GE Life Sciences, Logan, UT, USA) 1% GlutaMAX (Gibco, Life Technologies, Waltham, MA, USA) and 50 µg/mL gentamycin (Life Technologies, USA). HeLa WTβIII cells were grown in Dulbecco’s Modified Eagle Medium (Life Technologies) supplemented with 10% FBS and 50 µg/mL gentamycin. MDA-MB-435 cells were maintained in Improved Minimum Essential Medium (Life Technologies) supplemented with 10% FBS and 25 µg/mL gentamycin. All cells were grown at 37 °C in a humidified environment with 5% CO2.
On the technique in general: The SRB assay estimates cell density from bound dye.

The next assay has as its system tubulin. The assay is described as follows: Inhibition of [3H]colchicine binding to tubulin. The arrangement: species or system Bovine. The note with it: compound at 5 μM, 5.0 µM [3H]colchicine, 1.0 µM tubulin. As for the experimental part:
Bovine brain tubulin was purified as described previously. The tubulin assembly assay has been described in detail. Briefly, 1.0 mg/mL of tubulin (10 µM) was preincubated for 15 min at 30 °C in 0.8 M monosodium glutamate (pH of 2 M stock solution adjusted to 6.6 with HCl), varying compound concentrations and 4% (v/v) DMSO as compound solvent. After the preincubation, the reaction mixtures were placed on ice and 0.4 mM GTP was added. The reaction mixtures were transferred to cuvettes at 0 °C in a recording spectrophotometer equipped with an electronic temperature controller. After baselines were established, the temperature was elevated over about 30 s to 30 °C, and changes in turbidity were monitored at 350 nm for 20 min. The compound concentration that caused a 50% reduction in increase in turbidity, interpolated from the values obtained with defined compound concentrations, was defined as the IC50 value. The assay to measure inhibition of [^3H]colchicine binding was described in detail previously. Briefly, 0.1 mg/mL (1.0 µM) tubulin was incubated at 37 °C with 5.0 µM [3H]colchicine and potential inhibitors at 5.0 µM. […] The [^3H]colchicine was a product of PerkinElmer, USA.

For a further assay, the system named is SK-OV-3 MDR1-M6/6 cells. Put plainly: SRB assay in Pgp-expressing SK-OV-3 MDR1-M6/6 cells. It is filed as cell-based. The note with it: Homo sapiens, SKOV3-MDR1-M6/6, read-out: IC50 ± SD in SK-OV-3 MDR1-M6/6 Cells. How it is done: (§5) Comparison of the IC50 values in the parental SK-OV-3 and genetically manipulated SK-OV-3 MDR1-M6/6 cell line allows for the calculation of a relative resistance value, designated Rr. This value is calculated by dividing the IC50 value obtained in the Pgp-expressing SK-OV-3 MDR1-M6/6 cells by the IC50 obtained in the parental SK-OV-3 cells.
as §3, §4

In a further assay the test system is MDA-MB-435 cells. The assay is described as follows: Antiproliferative SRB assay in MDA-MB-435 cells. The assay is classed as cell-based, human. The note with it: read-out: IC50 ± SD in MDA-435 Cells. As for the experimental part:
as §1, §3, §4

For the next assay, the system named is SK-OV-3 cells. Put plainly: SRB assay in SK-OV-3 cells. It is filed as cell-based. The note with it: Homo sapiens, read-out: IC50 ± SD in SK-OV-3 Cells. As for the experimental part: as §5, §3, §4
Another assay relates to Bovine brain tubulin. The assay is described as follows: Inhibition of purified tubulin assembly (turbidity). The conditions noted are these: 10 µM tubulin, 30 °C; read-out: Inhibition of Tubulin Assembly IC50 ± SD. The assay is classed as biochemical. How it is done:
Bovine brain tubulin was purified as described previously. The tubulin assembly assay has been described in detail. Briefly, 1.0 mg/mL of tubulin (10 µM) was preincubated for 15 min at 30 °C in 0.8 M monosodium glutamate (pH of 2 M stock solution adjusted to 6.6 with HCl), varying compound concentrations and 4% (v/v) DMSO as compound solvent. After the preincubation, the reaction mixtures were placed on ice and 0.4 mM GTP was added. The reaction mixtures were transferred to cuvettes at 0 °C in a recording spectrophotometer equipped with an electronic temperature controller. After baselines were established, the temperature was elevated over about 30 s to 30 °C, and changes in turbidity were monitored at 350 nm for 20 min. The compound concentration that caused a 50% reduction in increase in turbidity, interpolated from the values obtained with defined compound concentrations, was defined as the IC50 value. The assay to measure inhibition of [^3H]colchicine binding was described in detail previously. Briefly, 0.1 mg/mL (1.0 µM) tubulin was incubated at 37 °C with 5.0 µM [3H]colchicine and potential inhibitors at 5.0 µM. Incubation was for 10 min, at which point the reaction had reached 40–60% of the maximum colchicine that can be bound in reaction mixtures without inhibitor. The [^3H]colchicine was a product of PerkinElmer, USA. CA-4 was a generous gift of Dr. G. R. Pettit, Arizona State University.

The subject of a further assay is HeLa WTβIII cells. The assay is described as follows: SRB assay in βIII-tubulin expressing HeLa WTβIII cells. It is filed as cell-based. The note with it: Homo sapiens, read-out: IC50 ± SD in HeLa WTβ3. How it is done: as §2, §3, §4

Entries after “also recorded” stand apart in the source; their conditions may differ. Read-outs that look alike come from different tables or passages of the source.

On to `CSc1ccc(Nc2nc(C)nc3sc4c(c23)CCCC4)cc1` [Compound 11, 2-Methyl-N-(4-(methylthio)phenyl)-5,6,7,8-tetrahydrobenzo[4,5]thieno[2,3-d]pyrimidin-4-amine], for which, in the assay on A-10 cells, the “Microtubule depolymerization activity in A-10 cells” value is listed as “did not show any activity; also recorded: Not MT active ^c”.
As usually defined, the EC50 is the concentration needed to bring the measured effect to its halfway point. Consider `COc1ccc(N(C)c2ncnc3sc4c(c23)CCCC4)cc1` [Compound 7, N-(4-methoxyphenyl)-N-methyl-5,6,7,8-tetrahydrobenzo[4,5]thieno[2,3-d]pyrimidin-4-amine], for which the IC50 in the assay on HeLa cells was 57.2 ± 8.5 nM; in the assay on SK-OV-3 MDR1-M6/6 cells, 47.1 ± 7.6 nM; with MDA-MB-435 cells (Homo sapiens) it was under 40 nM; in the assay on MDA-MB-435 cells, 36.8 ± 5.2 nM; in the assay on SK-OV-3 cells, 37 ± 6.2 nM; in the assay with Bovine brain tubulin, 490 ± 60 nM. Besides, in the assay on HeLa WTβIII cells, the IC50 is 38 ± 3.9 nM. The “Inhibition of Colchicine Binding (% inhibition ± SD)” value (“Inhibition … (% inhibition ± SD)” below) with tubulin was found to be 95.0 ± 0.40%. The molecule further had a concentration giving a half-maximal response (EC50) in the assay on A-10 cells of 45 nM.
On to `COc1cccc2cc(N(C)c3nc(C)nc4sc5c(c34)CCCC5)ccc12` [Compound 13, N-(5-methoxynaphthalen-2-yl)-N,2-dimethyl-5,6,7,8-tetrahydrobenzo[4,5]thieno[2,3-d]pyrimidin-4-amine], for which the IC50 with HeLa cells was found to be 170 ± 34 nM; in the assay on SK-OV-3 MDR1-M6/6 cells, 143 ± 244 nM; in the assay on MDA-MB-435 cells (Homo sapiens), 81.3 ± 8.4 nM; with SK-OV-3 cells, 142 ± 22 nM; in the assay on HeLa WTβIII cells it was 139 ± 20 nM. In the assay on A-10 cells, this molecule had a concentration for a half-maximal effect (EC50) of 118 nM.
Consider `CSc1ccc(N(C)c2nc(C)nc3sc4c(c23)CCCC4)cc1` [Compound 10, N,2-dimethyl-N-(4-(methylthio)phenyl)-5,6,7,8-tetrahydrobenzo[4,5]thieno[2,3-d]pyrimidin-4-amine], for which the IC50 with HeLa cells came to 146 ± 14 nM; in the assay with SK-OV-3 MDR1-M6/6 cells it was 209 ± 40 nM; with MDA-MB-435 cells (Homo sapiens), 87.7 ± 4.7 nM; in the assay on SK-OV-3 cells it was 136 ± 15 nM; in the assay with Bovine brain tubulin, 540 ± 80 nM; in the assay with HeLa WTβIII cells it was 108 ± 8.6 nM. In the assay on tubulin, the “Inhibition … (% inhibition ± SD)” value was found to be 89.0 ± 0.20%. In the assay with A-10 cells, the midpoint of the response, the EC50, lay at 157 nM.
As for `Cc1nc(Nc2ccc3c(O)cccc3c2)c2c3c(sc2n1)CCCC3` [Compound 14, 6-((2-Methyl-5,6,7,8-tetrahydrobenzo[4,5]thieno [2,3-d]pyrimidin-4-yl)amino)naphthalen-1-ol], the “Microtubule depolymerization activity in A-10 cells” value with A-10 cells is on record as “did not show any activity; also recorded: Not MT active ^c”.
As for `COc1ccc2c(c1)CCCN2c1nc(C)nc2sc3c(c12)CCCC3` [Compound 12, 4-(6-Methoxy-3,4-dihydroquinolin-1(2H)-yl)-2-methyl-5,6,7,8-tetrahydrobenzo[4,5]thieno[2,3-d]pyrimidine], the IC50 with HeLa cells worked out at 191 ± 8.1 nM; in the assay on SK-OV-3 MDR1-M6/6 cells it was 223 ± 9.4 nM; with MDA-MB-435 cells (Homo sapiens), 125 ± 14 nM; in the assay with SK-OV-3 cells, 178 ± 1.1 nM; in the assay with HeLa WTβIII cells, 203 ± 12 nM. In addition, in the assay with A-10 cells, it took 150 nM to reach a half-maximal effect (EC50).
Turning to `CSc1ccc(N(C)c2nc(N)nc3sc4c(c23)CCCC4)cc1` [Compound 5, N4-methyl-N4-(4-(methylthio)phenyl)-5,6,7,8-tetrahydrobenzo[4,5]thieno[2,3-d] pyrimidine-2,4-diamine], the IC50 in the assay on HeLa cells was 64.3 ± 4.3 nM; with SK-OV-3 MDR1-M6/6 cells, 74.1 ± 11 nM; in the assay on MDA-MB-435 cells (Homo sapiens) it was under 40 nM; in the assay with MDA-MB-435 cells, 38.6 ± 5.6 nM; with SK-OV-3 cells, 71.8 ± 5.3 nM; in the assay on Bovine brain tubulin, 490 ± 80 nM. For the same molecule, the IC50 in the assay with HeLa WTβIII cells came to 44.1 ± 4.8 nM. For the same molecule, the “Inhibition … (% inhibition ± SD)” value with tubulin was 94.0 ± 2.0%. In the assay on A-10 cells, this molecule returned a concentration for a half-maximal effect (EC50) of 70 nM.
For the molecule `COc1ccc(Nc2nc(C)nc3sc4c(c23)CCCC4)cc1` [Compound 9, N-(4-methoxyphenyl)-2-methyl-5,6,7,8-tetrahydrobenzo[4,5]thieno[2,3-d]pyrimidin-4-amine], the “Microtubule depolymerization activity in A-10 cells” value in the assay on A-10 cells is “did not show any activity; also recorded: Not MT active ^c”.
In the case of `COc1ccc2c(c1)CCCN2c1nc(N)nc2sc3c(c12)CCCC3` [Compound 6, 4-(6-Methoxy-3,4-dihydroquinolin-1(2H)-yl)-5,6,7,8-tetrahydrobenzo[4,5]thieno[2,3-d]-pyrimidin-2-amine], the IC50 is 123 ± 12 nM with HeLa cells; 91.7 ± 12 nM with SK-OV-3 MDR1-M6/6 cells; 59.6 ± 11.8 nM in the assay with MDA-MB-435 cells (Homo sapiens); 92.5 ± 3.3 nM with SK-OV-3 cells; 80.3 ± 6.4 nM in the assay on HeLa WTβIII cells. The same molecule returned a half-maximal effective concentration (EC50) in the assay with A-10 cells of 121 nM.
Molecule `COc1ccc(/C=C\c2cc(OC)c(OC)c(OC)c2)cc1O` [CA-4, combretastatin A-4] showed an EC50 in the assay with A-10 cells of 13 nM. Besides, the values for the IC50 in the assay on MDA-MB-435 cells (Homo sapiens) and in the assay with Bovine brain tubulin were 3.4 ± 0.6 nM and 1000 ± 90 nM, respectively.
For `COc1ccc(N(C)c2nc(C)nc3sc4c(c23)CCCC4)cc1` [Compound 8, N-(4-methoxyphenyl)-N,2-dimethyl-5,6,7,8-tetrahydrobenzo[4,5]thieno[2,3-d]pyrimidin-4-amine], the IC50 in the assay on HeLa cells was 87.9 ± 8.8 nM; in the assay on SK-OV-3 MDR1-M6/6 cells it was 57.5 ± 0.5 nM; with MDA-MB-435 cells (Homo sapiens), 53 ± 0.3 nM; in the assay with SK-OV-3 cells, 47.7 ± 1.2 nM; with Bovine brain tubulin, 560 ± 90 nM; in the assay on HeLa WTβIII cells, 81.3 ± 5.2 nM. Also, the “Inhibition … (% inhibition ± SD)” value in the assay on tubulin was 96.0 ± 0.40%. In the assay with A-10 cells, this molecule gave an EC50 of 52 nM.
